Data on 16 molecules can be found in PMC11206759, “Synthesis, Docking, and DFT Studies on Novel Schiff Base Sulfonamide Analogues as Selective COX-1 Inhibitors with Anti-Platelet Aggregation Activity” (Pharmaceuticals, 2024).

Like-named read-outs stand apart in the source and are kept apart here.

One may read the IC50 as the concentration at which inhibition is half-maximal.

The test system of test [1] is platelet aggregation induced by collagen. Description: Anti-platelet aggregation assay, collagen-induced. Format: cell-based. The note with it: for IC50 / Collagen Inhibition Rate (%) ± SD: platelet aggregation induced by 0.33 U/mL collagen; for IC50: 4 working concentrations; for Collagen Inhibition Rate (%) ± SD: mean ± SD of three values. The procedure:
(§1) Furthermore, the target compounds 10–13 were capable of inhibiting the platelet aggregation induced by 10 μM ADP and 0.33 U/mL collagen.
(§2) The anti-platelet aggregation assays were performed according to the method reported by XIE et al. (Supplementary Materials).

Test [2] concerns platelet aggregation induced by ADP. The test is described as follows: Anti-platelet aggregation assay, ADP-induced. The note with it: for IC50 / ADP Inhibition Rate (%) ± SD: platelet aggregation induced by 10 μM ADP; for IC50: 4 working concentrations; for ADP Inhibition Rate (%) ± SD: mean ± SD of three values. In kind it is cell-based. The method, then:
as §1, §2

The target in another test is T1, human recombinant COX-2 (Homo sapiens, UniProt P35354).
T1 construct: purchased Cayman Chemical 560131
T1 sequence (P35354 18-604): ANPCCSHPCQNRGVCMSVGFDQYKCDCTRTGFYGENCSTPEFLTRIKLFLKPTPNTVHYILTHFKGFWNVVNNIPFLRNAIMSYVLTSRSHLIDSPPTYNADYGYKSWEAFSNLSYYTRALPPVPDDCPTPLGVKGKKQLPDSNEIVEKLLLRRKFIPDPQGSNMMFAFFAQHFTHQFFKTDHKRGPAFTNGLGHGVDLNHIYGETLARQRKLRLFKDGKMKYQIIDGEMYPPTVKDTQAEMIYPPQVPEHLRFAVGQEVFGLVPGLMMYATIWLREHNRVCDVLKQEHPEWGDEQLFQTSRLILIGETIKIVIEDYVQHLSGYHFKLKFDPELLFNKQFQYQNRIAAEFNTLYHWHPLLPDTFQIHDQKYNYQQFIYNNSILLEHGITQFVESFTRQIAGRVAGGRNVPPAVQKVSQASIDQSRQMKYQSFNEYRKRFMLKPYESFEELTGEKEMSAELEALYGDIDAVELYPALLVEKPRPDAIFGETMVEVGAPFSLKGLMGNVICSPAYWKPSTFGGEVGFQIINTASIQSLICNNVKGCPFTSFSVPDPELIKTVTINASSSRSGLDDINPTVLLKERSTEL
Description: Cyclooxygenase inhibition assay (EIA kit), COX-2. Format: biochemical. The note with it: human recombinant COX-2, EIA kit.

A further test concerns human recombinant COX-1. The test is described as follows: Cyclooxygenase inhibition assay (EIA kit), COX-1. Format: biochemical. The note with it: COX-1 over COX-2.
The subject of another test is COX-1. The note with it: cited from earlier work; for selectivity index: COX-1 selectivity.
The next test concerns COX-2. The note with it: cited from earlier work.
Setting [3] is: previous examples of Figure 1, read-out: IC50 COX-1.

`CC(=O)Oc1ccccc1C(=O)O` [Aspirin]: in test [1], the IC50 is 510 nM and the “Collagen Inhibition Rate (%) ± SD” value worked out at 64.3 ± 1.38%. In addition, in test [2], the IC50 was 490 nM and the “ADP Inhibition Rate (%) ± SD” value was 92.36 ± 1.5%.

Turning to `O=S(=O)(Nc1ncccn1)c1ccc(/N=C/c2ccco2)cc1` [Compound 10, (E)-4-(Furan-2-ylmethyleneamino)-N-(pyrimidin-2-yl)benzenesulfonamide], in test [1], inhibition was half-maximal at 620 nM (IC50) and the “Collagen Inhibition Rate (%) ± SD” value was 89.36 ± 1.23%. Besides, the IC50 on human recombinant COX-2 was 11.3 µM. For the same molecule, in test [2], the IC50 is 370 nM and the “ADP Inhibition Rate (%) ± SD” value came to 78.36 ± 1.36%. For the same molecule, in the test on human recombinant COX-1, the “COX1 Selectivity Index” value was determined as 5.86.

For the molecule `O=S(=O)(Nc1ncccn1)c1ccc(/N=C/c2ccccc2O)cc1` [Compound 11, (E)-4-(2-Hydroxybenzylideneamino)-N-(pyrimidin-2-yl)benzenesulfonamide], in test [1], it took 1030 nM to reach half-maximal inhibition (IC50) and the “Collagen Inhibition Rate (%) ± SD” value is listed as 76.35 ± 1.34%. Besides, the concentration for half-maximal inhibition (IC50) at human recombinant COX-2 was found to be 15.2 µM. For the same molecule, in test [2], the IC50 turned out to be 250 nM and the “ADP Inhibition Rate (%) ± SD” value is given as 84.36 ± 1.64%. Also, the “COX1 Selectivity Index” value with human recombinant COX-1 is reported as 3.16.

For the molecule `O=S(=O)(Nc1cnc2ccccc2n1)c1ccc(/N=C/c2ccco2)cc1` [Compound 12, (E)-4-(Furan-2-ylmethyleneamino)-N-(quinoxalin-2-yl)benzenesulfonamide], in test [1] (fold versus aspirin), the “activity compared to aspirin, collagen” value is 4.25 folds. Also, in test [1], it took 120 nM to reach half-maximal inhibition (IC50) and the “Collagen Inhibition Rate (%) ± SD” value amounted to 95.9 ± 1.39%. The IC50 at human recombinant COX-2 amounted to 13.3 µM. The “reactivity compared to aspirin, ADP” value in test [2] (fold versus aspirin) turned out to be 4.45 folds. Moreover, in test [2], the midpoint of inhibition, the IC50, lay at 110 nM and the “ADP Inhibition Rate (%) ± SD” value stood at 98.1 ± 1.68%. The “COX1 Selectivity Index” value with human recombinant COX-1 is 18.69.

For the molecule `O=S(=O)(Nc1cnc2ccccc2n1)c1ccc(/N=C/c2ccccc2O)cc1` [Compound 13, (E)-4-(2-Hydroxybenzylideneamino)-N-(quinoxalin-2-yl)benzenesulfonamide], the “Collagen Inhibition Rate (%) ± SD” value in test [1] came out at 45.36 ± 1.56%. Besides, the IC50 at human recombinant COX-2 was 9.26 µM. The “ADP Inhibition Rate (%) ± SD” value in test [2] came to 46.32 ± 1.32%. Besides, the “COX1 Selectivity Index” value in the test with human recombinant COX-1 is reported as 2.87.

Regarding `Oc1ccc(/C=C/c2cc(O)cc(O)c2)cc1` [Compound II], the selectivity index entry in the test with COX-1 is listed as “around 200 folds”. Also, the IC50 with COX-1 (read-out: IC50 COX-1) was 15 µM.

Turning to `Nc1ccc(S(=O)(=O)Nc2ccc(Cl)cc2)cc1` [Compound I], the selectivity index result in the test with COX-1 is on record as “approximately 100 folds”. In the test with COX-1 (read-out: IC50 COX-1), the IC50 is 12 µM.

As for `COc1ccc(-c2nc3ccccc3nc2-c2ccc(S(C)(=O)=O)cc2)cc1` [III], the IC50 with COX-2 (previous examples of Figure 1) is 400 nM; in the test with COX-1 (setting [3]) it was more than 30 µM.

With `COc1ccc(-c2ncc(C)nc2-c2ccc(S(N)(=O)=O)cc2)cc1` [IV], the IC50 with COX-2 (previous examples of Figure 1) was 460 nM; with COX-1 (setting [3]) it was 97 µM.

Regarding `CS(=O)(=O)c1ccc(-c2nc(NCc3ccc(F)cc3)cc(C(F)(F)F)n2)cc1` [IX], the IC50 in the test on COX-2 (previous examples of Figure 1) is 7 nM. In addition, the COX-1 activity entry with COX-1 (previous examples of Figure 1) is reported as “not active”.

With `COc1ccc2c(c1)c(CC(=O)O)c(C)n2C(=O)c1ccc(Cl)cc1` [Indomethacin], the IC50 with COX-1 (read-out: IC50 (μM) COX-1) is […].

Turning to `Cc1cnc2c(-c3ccc(F)cc3)c(-c3ccc(S(C)(=O)=O)cc3)nn2c1C` [VIII], the values for the IC50 in the test on COX-2 and with COX-1 (read-out: IC50 COX-1) were 600 nM and 13 µM, respectively.

As to `NS(=O)(=O)c1ccc(-c2nc(Cl)cc(NCc3cccs3)n2)cc1` [VI], the SI in the test with COX-2 (COX-2 selectivity, Figure 1) is reported as > 81,300. The IC50 in the test on COX-2 (previous examples of Figure 1) was 1.2 nM.

Turning to `NS(=O)(=O)c1ccc(-c2nccnc2-c2ccc(F)cc2)cc1` [V], the IC50 in the test on COX-2 (previous examples of Figure 1) was 1070 nM; in the test on COX-1 (setting [3]) it was more than 300 µM.

As for `COc1ccc(-n2cc(-c3ccco3)c(C(F)(F)F)n2)cc1` [XI], the IC50 in the test on COX-2 (Figure 1) was more than 50000 nM; in the test with COX-1 (read-out: IC50 COX-1) it was 3.4 µM.

As to `Nc1onc(-c2ccc(Cl)o2)c1-c1ccccc1` [X], the IC50 in the test with COX-2 (Figure 1) was more than 50000 nM; in the test on COX-1 (read-out: IC50 COX-1), 1.1 µM.
